Reference: patent publication US20170190671A1, “BIS(ARYL)CATECHOL DERIVATIVES AS HERBICIDES” (E I DU PONT DE NEMOURS AND COMPANY, priority 2014, published 2017)

Key:
Assay in all cases: Test E postemergence
Type in all cases: in vivo
Details in all cases: scale 0 to 100
[1] = system: fall panicum (Panicum dichotomiflorum)
Excerpt: (§1) Seeds of plant species selected from corn (Zea mays), soybean (Glycine max), velvetleaf (Abutilon theophrasti), cocklebur (common cocklebur, Xanthium strumarium), lambsquarters (Chenopodium album), wild poinsettia (Euphorbia heterophylla), palmer pigweed (Amaranthus palmeri), waterhemp (common waterhemp, Amaranthus rudis), surinam grass (Brachiaria decumbens), large (Lg) crabgrass (Digitaria sanguinalis), Brazilian crabgrass (Digitaria horizontalis), fall panicum (Panicum dichotomiflorum), giant foxtail (Setaria faberii), green foxtail (Setaria viridis), goosegrass (Eleusine indica), johnsongrass (Sorghum halepense), ragweed (common ragweed, Ambrosia elatior), barnyardgrass (Echinochloa crus-galli), sandbur (southern sandbur, Cenchrus echinatus), arrowleaf sida (Sida rhombifolia), Italian ryegrass (Lolium multiflorum), dayflower (Virginia (VA) dayflower, Commelina virginica), field bindweed (Convolvulus arvensis), morningglory (Ipomoea coccinea), nightshade (eastern black nightshade, Solanum ptycanthum), kochia (Kochia scoparia), yellow nutsedge (Cyperus esculentus), horseweed (Conyza canadensis), and hairy beggarticks (Bidens pilosa), were planted into a silt loam soil and treated preemergence with test chemicals formulated in a non-phytotoxic solvent mixture which included a surfactant.
(§2) At the same time, plants from these crop and weed species and also waterhemp_RES1, (ALS & Triazine resistant common waterhemp, Amaranthus rudis), and waterhemp_RES2, (ALS & HPPD resistant common waterhemp, Amaranthus rudis) were planted in pots containing Redi-Earth® planting medium (Scotts Company, 14111 Scottslawn Road, Marysville, Ohio 43041) comprising spaghnum peat moss, vermiculite, wetting agent and starter nutrients were treated with postemergence applications of test chemicals formulated in the same manner. Plants ranged in height from 2 to 18 cm for postemergence treatments (1- to 4-leaf stage). Treated plants and controls were maintained in a greenhouse for 14 to 21 days, after which time all species were compared to controls and visually evaluated. Plant response ratings, summarized in Table E, are based on a scale of 0 to 100 where 0 is no effect and 100 is complete control. A dash (-) response means no test result.

[2] = system: field bindweed (Convolvulus arvensis)
Excerpt: as §1, §2

[3] = system: corn (Zea mays)
Excerpt: as §1, §2

[4] = system: dayflower (Virginia (VA) dayflower, Commelina virginica)
Excerpt: as §1, §2

[5] = system: hairy beggarticks (Bidens pilosa)
Excerpt: as §1, §2

[6] = system: Brazilian crabgrass (Digitaria horizontalis)
Excerpt: as §1, §2

[7] = system: kochia (Kochia scoparia)
Excerpt: as §1, §2

[8] = system: horseweed (Conyza canadensis)
Excerpt: as §1, §2

[9] = system: Italian ryegrass (Lolium multiflorum)
Excerpt: as §1, §2

[10] = system: barnyardgrass (Echinochloa crus-galli)
Excerpt: as §1, §2

[11] = system: waterhemp_RES1 (ALS & Triazine resistant common waterhemp, Amaranthus rudis)
Excerpt: as §1, §2

[12] = system: arrowleaf sida (Sida rhombifolia)
Excerpt: as §1, §2

[13] = system: waterhemp_RES2 (ALS & HPPD resistant common waterhemp, Amaranthus rudis)
Excerpt: as §1, §2

[14] = system: sandbur (southern sandbur, Cenchrus echinatus)
Excerpt: as §1, §2

[15] = system: ragweed (common ragweed, Ambrosia elatior)
Excerpt: as §1, §2

[16] = system: wild poinsettia (Euphorbia heterophylla)
Excerpt: as §1, §2

[17] = system: palmer pigweed (Amaranthus palmeri)
Excerpt: as §1, §2

[18] = system: soybean (Glycine max)
Excerpt: as §1, §2

[19] = system: waterhemp (common waterhemp, Amaranthus rudis)
Excerpt: as §1, §2

With `Fc1cccc(Oc2ncc(C(F)(F)F)cn2)c1Oc1ncc(Cl)cn1` [Compound 42, 5-chloro-2-[2-fluoro-6-[[5-(trifluoromethyl)-2-pyrimidinyl]oxy]phenoxy]pyrimidine] the “Plant response rating, Panicum, Fall” value ([1]; 16 g ai/ha) was 10, the “Plant response rating, Panicum, Fall” value ([1]; 31 g ai/ha) was 15 and the “Plant response rating, Panicum, Fall” value ([1]; 62 g ai/ha) was 20. For the same molecule, the “Plant response rating, Panicum, Fall” value ([1]; 125 g ai/ha) was 30, the “Plant response rating, Field Bindweed” value ([2]; 16 g ai/ha) was 40 and the “Plant response rating, Field Bindweed” value ([2]; 31 g ai/ha) was 50. For the same molecule, the “Plant response rating, Field Bindweed” value ([2]; 62 g ai/ha) was 60, the “Plant response rating, Field Bindweed” value ([2]; 125 g ai/ha) was 70 and the “Plant response rating, Corn” value ([3]; 16 g ai/ha) was 5. The “Plant response rating, Corn” value ([3]; 31 g ai/ha) was 10, the “Plant response rating, Corn” value ([3]; 62 g ai/ha) was 10 and the “Plant response rating, Corn” value ([3]; 125 g ai/ha) was 15. For the same molecule, the “Plant response rating, Dayflower, VA” value ([4]; 16 g ai/ha) was 35, the “Plant response rating, Dayflower, VA” value ([4]; 31 g ai/ha) was 50 and the “Plant response rating, Dayflower, VA” value ([4]; 62 g ai/ha) was 70. The “Plant response rating, Dayflower, VA” value ([4]; 125 g ai/ha) was 75, the “Plant response rating, Beggarticks” value ([5]; 16 g ai/ha) was 50 and the “Plant response rating, Beggarticks” value ([5]; 31 g ai/ha) was 60. The “Plant response rating, Beggarticks” value ([5]; 62 g ai/ha) was 60, the “Plant response rating, Beggarticks” value ([5]; 125 g ai/ha) was 70 and the “Plant response rating, Crabgrass, Brazil” value ([6]; 16 g ai/ha) was 10. For the same molecule, the “Plant response rating, Crabgrass, Brazil” value ([6]; 31 g ai/ha) was 10, the “Plant response rating, Crabgrass, Brazil” value ([6]; 62 g ai/ha) was 20 and the “Plant response rating, Crabgrass, Brazil” value ([6]; 125 g ai/ha) was 30. The “Plant response rating, Kochia” value ([7]; 16 g ai/ha) was 70, the “Plant response rating, Kochia” value ([7]; 31 g ai/ha) was 80 and the “Plant response rating, Kochia” value ([7]; 62 g ai/ha) was 95. For the same molecule, the “Plant response rating, Kochia” value ([7]; 125 g ai/ha) was 95, the “Plant response rating, Horseweed” value ([8]; 16 g ai/ha) was 0 and the “Plant response rating, Horseweed” value ([8]; 31 g ai/ha) was 0. The “Plant response rating, Horseweed” value ([8]; 62 g ai/ha) was 10, the “Plant response rating, Horseweed” value ([8]; 125 g ai/ha) was 10 and the “Plant response rating, Ryegrass, Italian” value ([9]; 16 g ai/ha) was 0. The “Plant response rating, Ryegrass, Italian” value ([9]; 31 g ai/ha) was 10, the “Plant response rating, Ryegrass, Italian” value ([9]; 62 g ai/ha) was 20 and the “Plant response rating, Ryegrass, Italian” value ([9]; 125 g ai/ha) was 40. For the same molecule, the “Plant response rating, Barnyardgrass” value ([10]; 16 g ai/ha) was 0, the “Plant response rating, Barnyardgrass” value ([10]; 31 g ai/ha) was 0 and the “Plant response rating, Barnyardgrass” value ([10]; 62 g ai/ha) was 10. The “Plant response rating, Barnyardgrass” value ([10]; 125 g ai/ha) was 20, the “Plant response rating, Waterhemp_RES1” value ([11]; 16 g ai/ha) was 60 and the “Plant response rating, Waterhemp_RES1” value ([11]; 31 g ai/ha) was 75. For the same molecule, the “Plant response rating, Waterhemp_RES1” value ([11]; 62 g ai/ha) was 75, the “Plant response rating, Waterhemp_RES1” value ([11]; 125 g ai/ha) was 90 and the “Plant response rating, Arrowleaf Sida” value ([12]; 16 g ai/ha) was 75. For the same molecule, the “Plant response rating, Arrowleaf Sida” value ([12]; 31 g ai/ha) was 85, the “Plant response rating, Arrowleaf Sida” value ([12]; 62 g ai/ha) was 95 and the “Plant response rating, Arrowleaf Sida” value ([12]; 125 g ai/ha) was 98. The “Plant response rating, Waterhemp_RES2” value ([13]; 16 g ai/ha) was 50, the “Plant response rating, Waterhemp_RES2” value ([13]; 31 g ai/ha) was 65 and the “Plant response rating, Waterhemp_RES2” value ([13]; 62 g ai/ha) was 85. The “Plant response rating, Waterhemp_RES2” value ([13]; 125 g ai/ha) was 95, the “Plant response rating, Sandbur” value ([14]; 16 g ai/ha) was 0 and the “Plant response rating, Sandbur” value ([14]; 31 g ai/ha) was 0. For the same molecule, the “Plant response rating, Sandbur” value ([14]; 62 g ai/ha) was 0, the “Plant response rating, Sandbur” value ([14]; 125 g ai/ha) was 10 and the “Plant response rating, Ragweed” value ([15]; 16 g ai/ha) was 10. For the same molecule, the “Plant response rating, Ragweed” value ([15]; 31 g ai/ha) was 25, the “Plant response rating, Ragweed” value ([15]; 62 g ai/ha) was 50 and the “Plant response rating, Ragweed” value ([15]; 125 g ai/ha) was 60. For the same molecule, the “Plant response rating, Poinsettia, Wild” value ([16]; 16 g ai/ha) was 50, the “Plant response rating, Poinsettia, Wild” value ([16]; 31 g ai/ha) was 60 and the “Plant response rating, Poinsettia, Wild” value ([16]; 62 g ai/ha) was 70. The “Plant response rating, Poinsettia, Wild” value ([16]; 125 g ai/ha) was 70, the “Plant response rating, Pigweed, Palmer” value ([17]; 16 g ai/ha) was 80 and the “Plant response rating, Pigweed, Palmer” value ([17]; 31 g ai/ha) was 85. For the same molecule, the “Plant response rating, Pigweed, Palmer” value ([17]; 62 g ai/ha) was 95, the “Plant response rating, Pigweed, Palmer” value ([17]; 125 g ai/ha) was 100 and the “Plant response rating, Soybean” value ([18]; 16 g ai/ha) was 50. The “Plant response rating, Soybean” value ([18]; 31 g ai/ha) was 60, the “Plant response rating, Soybean” value ([18]; 62 g ai/ha) was 95 and the “Plant response rating, Soybean” value ([18]; 125 g ai/ha) was 95. For the same molecule, the “Plant response rating, Waterhemp” value ([19]; 16 g ai/ha) was 75, the “Plant response rating, Waterhemp” value ([19]; 31 g ai/ha) was 85 and the “Plant response rating, Waterhemp” value ([19]; 62 g ai/ha) was 90. The “Plant response rating, Waterhemp” value ([19]; 125 g ai/ha) was 95.

In the case of `Fc1cccc(Oc2ncc(Cl)cn2)c1Oc1ncc(C(F)(F)F)cn1` [Compound 43, 5-chloro-2-[5-fluoro-6-[[5-(trifluoromethyl)-2-pyrimidinyl]oxy]phenoxy]pyrimidine], the “Plant response rating, Panicum, Fall” value ([1]; 31 g ai/ha) is reported as 40, the “Plant response rating, Panicum, Fall” value ([1]; 125 g ai/ha) is reported as 50 and the “Plant response rating, Field Bindweed” value ([2]; 31 g ai/ha) is reported as 55. For the same molecule, the “Plant response rating, Field Bindweed” value ([2]; 125 g ai/ha) was 70, the “Plant response rating, Corn” value ([3]; 31 g ai/ha) was 5 and the “Plant response rating, Corn” value ([3]; 125 g ai/ha) was 15. The “Plant response rating, Dayflower, VA” value ([4]; 31 g ai/ha) was 50, the “Plant response rating, Dayflower, VA” value ([4]; 125 g ai/ha) was 70 and the “Plant response rating, Beggarticks” value ([5]; 31 g ai/ha) was 50. For the same molecule, the “Plant response rating, Beggarticks” value ([5]; 125 g ai/ha) was 60, the “Plant response rating, Crabgrass, Brazil” value ([6]; 31 g ai/ha) was 25 and the “Plant response rating, Crabgrass, Brazil” value ([6]; 125 g ai/ha) was 40. The “Plant response rating, Kochia” value ([7]; 31 g ai/ha) was 75, the “Plant response rating, Kochia” value ([7]; 125 g ai/ha) was 95 and the “Plant response rating, Horseweed” value ([8]; 31 g ai/ha) was 0. The “Plant response rating, Horseweed” value ([8]; 125 g ai/ha) was 10, the “Plant response rating, Ryegrass, Italian” value ([9]; 31 g ai/ha) was 0 and the “Plant response rating, Ryegrass, Italian” value ([9]; 125 g ai/ha) was 20. For the same molecule, the “Plant response rating, Barnyardgrass” value ([10]; 31 g ai/ha) was 0, the “Plant response rating, Barnyardgrass” value ([10]; 125 g ai/ha) was 15 and the “Plant response rating, Waterhemp_RES1” value ([11]; 31 g ai/ha) was 65. The “Plant response rating, Waterhemp_RES1” value ([11]; 125 g ai/ha) was 80, the “Plant response rating, Arrowleaf Sida” value ([12]; 31 g ai/ha) was 80 and the “Plant response rating, Arrowleaf Sida” value ([12]; 125 g ai/ha) was 95. For the same molecule, the “Plant response rating, Waterhemp_RES2” value ([13]; 31 g ai/ha) was 65, the “Plant response rating, Waterhemp_RES2” value ([13]; 125 g ai/ha) was 80 and the “Plant response rating, Sandbur” value ([14]; 31 g ai/ha) was 0. The “Plant response rating, Sandbur” value ([14]; 125 g ai/ha) was 10, the “Plant response rating, Ragweed” value ([15]; 31 g ai/ha) was 50 and the “Plant response rating, Ragweed” value ([15]; 125 g ai/ha) was 60. The “Plant response rating, Poinsettia, Wild” value ([16]; 31 g ai/ha) was 60, the “Plant response rating, Poinsettia, Wild” value ([16]; 125 g ai/ha) was 75 and the “Plant response rating, Pigweed, Palmer” value ([17]; 31 g ai/ha) was 80. For the same molecule, the “Plant response rating, Pigweed, Palmer” value ([17]; 125 g ai/ha) was 90, the “Plant response rating, Soybean” value ([18]; 31 g ai/ha) was 70 and the “Plant response rating, Soybean” value ([18]; 125 g ai/ha) was 95. For the same molecule, the “Plant response rating, Waterhemp” value ([19]; 31 g ai/ha) was 65 and the “Plant response rating, Waterhemp” value ([19]; 125 g ai/ha) was 95.
